Literature values as cited in patent US20190231795A1, “METHODS FOR TREATING CANCER AND PREDICTING DRUG RESPONSIVENESS IN CANCER PATIENTS” (LiPlasome Pharma ApS, priority 2018, published 2019).

Key:
[1] = test system: DNA platinum adducts (GG-Pt) in tumor tissue; settings: comparison value
[2] = test system: metastatic breast cancer

With `N.N.[Cl][Pt][Cl]` [conventional cisplatin, cisplatin] as the compound, how does the “increase of DNA-platinum (GG-Pt) in tumor tissue seen with conventional cisplatin” value [1] read?
The value was 4-6 fold.

And the response rate [2]?
Its response rate is 10%.
